Test results as given in the supplement of paper PMC5908809.

Assays:
[1] = system: normal NK cells expanded with K562-aAPC; experiment: percent inhibition of viability; higher = more inhibition; conditions: 72 h, IL-2 2.5 ng/mL
Protocol: (§1)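 Drug sensitivity and resistance testing on K562-aAPC-expanded normal NK cells: 5 concentrations (10-fold steps over a 10,000-fold range), 72 h at 37 °C, viability by CellTiter-Glo normalised to DMSO and benzethonium chloride controls; DSS from the fitted curve.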

DERL-7 (IL-2 2.5 ng/mL) [2] = experiment: as above; conditions: 72 h
IMC-1 (IL-2 20 ng/mL) [3] = experiment: as above; conditions: 72 h
KAI3 (IL-2 2.5 ng/mL) [4] = experiment: as above; conditions: 72 h
KHYG-1 (IL-2 2.5 ng/mL) [5] = experiment: as above; conditions: 72 h
NK-92 (IL-2 2.5 ng/mL) [6] = experiment: as above; conditions: 72 h
NK-YS (IL-2 2.5 ng/mL) [7] = experiment: as above; conditions: 72 h
NKL (IL-2 2.5 ng/mL) [8] = experiment: as above; conditions: 72 h
SNK-6 (IL-2 2.5 ng/mL) [9] = experiment: as above; conditions: 72 h
YT (IL-2 2.5 ng/mL) [10] = experiment: as above; conditions: 72 h
[11] = system: normal primary NK cells, pool 1 (3 donors) (IL-2 2.5 ng/mL); experiment: as above; conditions: 72 h
[12] = system: normal primary NK cells, pool 1 (3 donors), resting (IL-2 0 ng/mL); experiment: as above; conditions: 72 h
[13] = system: normal primary NK cells, pool 2 (3 donors) (IL-2 2.5 ng/mL); experiment: as above; conditions: 72 h
[14] = system: normal primary NK cells, pool 3 (3 donors) (IL-2 2.5 ng/mL); experiment: as above; conditions: 72 h
[15] = system: normal NK cells expanded with K562-aAPC; experiment: drug sensitivity score (DSS) (DSS units); higher = more sensitive; extreme values may be limits of the assay; conditions: 72 h; IL-2 2.5 ng/mL
Protocol: as §1

DERL-7 (IL-2 2.5 ng/mL) [16] = experiment: as above; conditions: 72 h
IMC-1 (IL-2 20 ng/mL) [17] = experiment: as above; conditions: 72 h
KAI3 (IL-2 2.5 ng/mL) [18] = experiment: as above; conditions: 72 h
KHYG-1 (IL-2 2.5 ng/mL) [19] = experiment: as above; conditions: 72 h
NK-92 (IL-2 2.5 ng/mL) [20] = experiment: as above; conditions: 72 h
NK-YS (IL-2 2.5 ng/mL) [21] = experiment: as above; conditions: 72 h
NKL (IL-2 2.5 ng/mL) [22] = experiment: as above; conditions: 72 h
SNK-6 (IL-2 2.5 ng/mL) [23] = experiment: as above; conditions: 72 h
YT (IL-2 2.5 ng/mL) [24] = experiment: as above; conditions: 72 h
[25] = system: normal primary NK cells, pool 1 (3 donors) (IL-2 2.5 ng/mL); experiment: as above; conditions: 72 h
[26] = system: normal primary NK cells, pool 1 (3 donors), resting (IL-2 0 ng/mL); experiment: as above; conditions: 72 h
[27] = system: normal primary NK cells, pool 2 (3 donors) (IL-2 2.5 ng/mL); experiment: as above; conditions: 72 h
[28] = system: normal primary NK cells, pool 3 (3 donors) (IL-2 2.5 ng/mL); experiment: as above; conditions: 72 h

CN1CCN(c2ccc3nc(-c4c(N)c5c(F)cccc5[nH]c4=O)[nH]c3c2)CC1 [Dovitinib] (max concentration tested 10000 nM)
percent inhibition of viability [%]
Conditions	1 nM	10 nM	100 nM	1000 nM	10000 nM
DERL-7 (IL-2 2.5 ng/mL) [2]	-0.26	-2.47	-0.75	1.93	19.1
IMC-1 (IL-2 20 ng/mL) [3]	-9.28	-4.03	-5.76	-6.55	-7.61
KAI3 (IL-2 2.5 ng/mL) [4]	2.03	-0.28	0.82	4.98	25.2
KHYG-1 (IL-2 2.5 ng/mL) [5]	-5.15	-3.54	0.13	3.06	2.7
NK-92 (IL-2 2.5 ng/mL) [6]	-5.95	-5.28	-3.15	-3.74	0.3
NK-YS (IL-2 2.5 ng/mL) [7]	-1.41	-0.72	1.54	8.71	13.5
NKL (IL-2 2.5 ng/mL) [8]	-10	-6.08	-3.28	8.58	51.6
SNK-6 (IL-2 2.5 ng/mL) [9]	-4.17	-5.09	-18.2	-14	-35.3
YT (IL-2 2.5 ng/mL) [10]	1.17	0.22	2.9	5.68	1.67
[1]	-2.16	-2.71	2.91	-0.42	3.96
[11]	-15.6	-11.3	-2.48	-5.56	9.92
[12]	-23.8	-2.86	19.4	10.6	53.9
[13]	-7.55	-5.64	-7.93	-6.84	19.6
[14]	-13.4	-9.6	-2.56	-3.69	18.9

Conditions	drug sensitivity score
DERL-7 (IL-2 2.5 ng/mL) [16]	0.77
IMC-1 (IL-2 20 ng/mL) [17]	0
KAI3 (IL-2 2.5 ng/mL) [18]	1.71
KHYG-1 (IL-2 2.5 ng/mL) [19]	0
NK-92 (IL-2 2.5 ng/mL) [20]	0
NK-YS (IL-2 2.5 ng/mL) [21]	0.43
NKL (IL-2 2.5 ng/mL) [22]	4.18
SNK-6 (IL-2 2.5 ng/mL) [23]	0
YT (IL-2 2.5 ng/mL) [24]	0
[15]	0
[25]	0
[26]	4.36
[27]	0.35
[28]	0.36

Nc1nccc(-c2c(-c3ccc(F)cc3)ncn2C2CCCCC2)n1 (max concentration tested 10000 nM)
percent inhibition of viability [%]
Conditions	1 nM	10 nM	100 nM	1000 nM	10000 nM
DERL-7 (IL-2 2.5 ng/mL) [2]	-3.56	-1.12	-1.49	5.28	29
IMC-1 (IL-2 20 ng/mL) [3]	0.25	1.14	3.57	3.69	3.74
KAI3 (IL-2 2.5 ng/mL) [4]	3.53	23.9	60.5	90.9	66.9
KHYG-1 (IL-2 2.5 ng/mL) [5]	4.98	-0.44	4.5	3.42	31.7
NK-92 (IL-2 2.5 ng/mL) [6]	4.97	-2.54	18.6	23.2	49.9
NK-YS (IL-2 2.5 ng/mL) [7]	-3.68	-2.41	3.69	14.9	47.6
NKL (IL-2 2.5 ng/mL) [8]	-2.84	0.96	7.22	-3.94	-2.33
SNK-6 (IL-2 2.5 ng/mL) [9]	-26.2	-7.24	-4.71	7.8	64.1
YT (IL-2 2.5 ng/mL) [10]	4.57	3.69	9.54	15.5	35.5
[1]	-4.54	-4.14	0.36	-0.71	21.9
[11]	-3.43	-7.84	9.95	16.4	17.9
[12]	-19.6	-29.4	3.3	5.1	33.2
[13]	-8.96	-5.75	14	14.7	21.2
[14]	-7.45	-3.42	2.49	11.6	17

Conditions	drug sensitivity score
DERL-7 (IL-2 2.5 ng/mL) [16]	2.07
IMC-1 (IL-2 20 ng/mL) [17]	0
KAI3 (IL-2 2.5 ng/mL) [18]	25.2
KHYG-1 (IL-2 2.5 ng/mL) [19]	1.98
NK-92 (IL-2 2.5 ng/mL) [20]	6.29
NK-YS (IL-2 2.5 ng/mL) [21]	4.44
NKL (IL-2 2.5 ng/mL) [22]	0
SNK-6 (IL-2 2.5 ng/mL) [23]	4.81
YT (IL-2 2.5 ng/mL) [24]	3.49
[15]	0.68
[25]	3.09
[26]	2.37
[27]	4.42
[28]	1.17

COCC[n+]1c2c(n(Cc3cnccn3)c1C)C(=O)c1ccccc1C2=O [YM155] (max concentration tested 10000 nM)
percent inhibition of viability [%]
Conditions	1 nM	10 nM	100 nM	1000 nM	10000 nM
DERL-7 (IL-2 2.5 ng/mL) [2]	7.39	49.9	100	101	100
IMC-1 (IL-2 20 ng/mL) [3]	65.3	99.4	100	101	100
KAI3 (IL-2 2.5 ng/mL) [4]	8.21	49.4	93.5	106	103
KHYG-1 (IL-2 2.5 ng/mL) [5]	2.01	20.5	102	106	102
NK-92 (IL-2 2.5 ng/mL) [6]	-8.35	27.6	93.5	105	102
NK-YS (IL-2 2.5 ng/mL) [7]	0.18	29	97.7	107	103
NKL (IL-2 2.5 ng/mL) [8]	10.2	90.5	104	108	102
SNK-6 (IL-2 2.5 ng/mL) [9]	8.28	13.1	85.6	98.6	100
YT (IL-2 2.5 ng/mL) [10]	5.75	59.2	102	106	102
[1]	-6.82	3.02	36.7	96.8	100
[11]	-4.81	-8.82	20.6	54.2	100
[12]	-2.05	-12.4	35.7	79.2	98.8
[13]	-1.75	4.96	15.5	50.5	97.1
[14]	-2.28	1.02	6.74	31.9	86.7

Conditions	drug sensitivity score
DERL-7 (IL-2 2.5 ng/mL) [16]	36.2
IMC-1 (IL-2 20 ng/mL) [17]	48.1
KAI3 (IL-2 2.5 ng/mL) [18]	35.8
KHYG-1 (IL-2 2.5 ng/mL) [19]	33.8
NK-92 (IL-2 2.5 ng/mL) [20]	33.2
NK-YS (IL-2 2.5 ng/mL) [21]	34.2
NKL (IL-2 2.5 ng/mL) [22]	42.9
SNK-6 (IL-2 2.5 ng/mL) [23]	29.9
YT (IL-2 2.5 ng/mL) [24]	37.6
[15]	22
[25]	12.9
[26]	19.1
[27]	12
[28]	8.63
